Format in all cases: cell-based
In experiment [1] the test system is B16 melanocytes. The experiment in a line: Inhibition rate of melanin content (melanogenesis) in B16 melanocytes. The following applies: Melanocyte, 72 hours, n = 4. How it is done:
B16 melanocytes(from SIBCB) were cultivated with RPMI-1640 culture fluid containing about 10% newborn calf serum and penicillium—streptomycin under the condition of 37° C., 5% CO2. The melanocytes were digested with about 0.125% trypsin (Difco, US) to be passaged or tested when the cell fusion reached more than about 80%.
After the cells dissolved in strong base solution, melanin was dissolved and then the OD was tested. Melanin content was determined by Hosoi improved method. (Victoria M, Virador, Nobuhiko Kobayashi et al, A standardized protocol for assessing regulators of pigmentation. Analytical Biochemistry, 1999, 270:207˜219.)
B16 melanocytes (1×10^5) were cultivated in 6-well cultured plate. After 24 hours incubation the solution was changed and different kinds of tested substances in different concentration were added respectively. The lingonberry extract III was prepared by the method in example 3, other substances were all bought from market.
After 72 hours, reactants were washed by PBS for 2 times, dried by air-drying, dissolved into 400 μl 1N NaOH (containing 1% DMSO), heated at 80° C. for 1 hour and then cooled. The OD was tested by enzyme-linked immunosorbent assay instrument at 475 nm.
Calculated every tested agents' inhibition rate of melanin content using the following formula: inhibition rate of melanin content=[1−(OD of tested group/well cell density of tested group)/(OD of control group/well cell density of control group)]*100%
Experiment method was the same as example 7. The lingonberry extract I, II and III used as tested substance were prepared by the method in example 1, 2 and 3 respectively.

In experiment [2] the target is T1, B16 melanocytes' tyrosinase (Mus musculus, UniProt P11344).
T1 construct: The cells were dissolved by 1% Troton X-100; host or cells: B16 melanocytes (melanoma cells)
T1 sequence (P11344 19-533): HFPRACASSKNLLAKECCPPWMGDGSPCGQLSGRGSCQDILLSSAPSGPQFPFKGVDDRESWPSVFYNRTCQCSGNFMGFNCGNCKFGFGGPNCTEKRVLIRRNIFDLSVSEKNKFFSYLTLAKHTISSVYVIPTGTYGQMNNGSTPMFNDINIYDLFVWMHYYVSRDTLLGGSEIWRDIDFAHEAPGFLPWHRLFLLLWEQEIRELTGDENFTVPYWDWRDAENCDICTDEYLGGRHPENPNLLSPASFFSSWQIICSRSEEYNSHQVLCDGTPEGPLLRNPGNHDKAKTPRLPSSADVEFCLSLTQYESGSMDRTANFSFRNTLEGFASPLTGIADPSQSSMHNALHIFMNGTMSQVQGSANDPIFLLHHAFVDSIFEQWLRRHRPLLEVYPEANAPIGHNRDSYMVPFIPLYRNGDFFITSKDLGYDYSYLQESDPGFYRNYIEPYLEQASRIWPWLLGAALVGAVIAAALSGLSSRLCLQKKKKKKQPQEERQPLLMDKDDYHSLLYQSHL
As to the kind of experiment: Inhibition rate of B16 melanocytes' tyrosinase activity (L-dopa oxidation, OD 475 nm). The following applies: 3 days, n = 6. How it is done: B16 melanocytes(from SIBCB) were cultivated with RPMI-1640 culture fluid containing 10% newborn calf serum and penicillium—streptomycin under the condition of about 37° C., 5% CO2. The melanocytes were digested with about 0.125% trypsin (Difco, US) to be passaged or tested when the cell fusion reached more than 80%.
Tyrosinase activity is determined by the speed of dopa being oxidized into dopaquinone. L-dopa was used as catalysis substrate. Optical density (OD) of dopaquinone was determined at 475 nm by improved Marlinez-Esparza method. (Ando H, Itoh A, Mishima Y et al., Correlation between the number of melanosomes, tyrosinase mRNA levels, and tyrosinase activity cultured murine melanoma cells in response to various melanogenesis regulatory agents. J Cell Physiol, 1995, 163: 608-614.). The higher of the OD, the stronger of the tyrosinase.
The lingonberry extract III was prepared by the method in example 3, other materials were all bought from market.
After 3 days of effects of tested substance, the supernatant was deserted and the remainder was washed for 3 times with pH 7.0 PBS after centrifuging at 1000 rpm for 5 min every time. The cells were dissolved by 1% Troton X-100 400 μl adding in every well of the cultured plate. 100 μl solution in every well was taken and then added into 96-well cultured plate. After pre-temperature at 37° C., 100 μl 1.7% L-dopa (sigma, US) was added into every well. The OD A value then was determined every 10 min within 1 hour at 475 nm and 37° C., using blank as zero adjustment.
Calculated every tested agents' inhibition rate of B16 melanocytes' tyrosinase activity using the following formula: inhibition rate of melanocytes' tyrosinase activity=(1−OD of tested group/OD of control group)*100%
Experiment method was the same as example 6. The lingonberry extract I, II and III used as tested substance were prepared by the method in example 1, 2 and 3 respectively.

The subject of experiment [3] is B16 melanocytes. The experiment in a line: MTT cell multiplication / cell survival ratio of B16 melanocytes. The following applies: blank = 100, n = 6. Here is the method:
B16 melanocytes (from SIBCB) were cultivated with RPMI-1640 culture fluid containing about 10% newborn calf serum and penicillium—streptomycin under the condition of about 37° C., about 5% CO2. Digest the melanocytes with about 0.125% trypsin (Difco, US) when the cell fusion reached more than about 80%.
The activity of melanocytes multiplication was determined by measurement of […] (MTT). The B16 melanocytes at densities of about 1×10^5 were inoculated in 24-well cell cultured plate. The culture fluid was changed next day and the tested substances in different concentration were added individually: the lingonberry extract III prepared in example 3 (comprised anthocyanidin about 10%, OPC about 35% and resveratrol about 10%), arbutin bought from the market, and blank as control group.
After 20 hours cultivation and adding about 0.15 ml MTT, the cells were cultivated continuously for about 4 hours. Centrifuged at 3000 rpm for about 10 min and deserted the supernatant, cultivated cells in every well were added DMSO (about 1%) about 1 ml and shook for dissolving thoroughly. Then about 150 μl cultivated cells aspiration were added into 96-well cell cultured plate. The OD value of the aspiration was measured with MQX200 micro-plate spectrophotometer (Bio-Tek, US), at 570 nm excitation wave length and 630 nm reference wave length.
Calculated the inhibition ratio of tested agents on melanocytes using the following formula: melanocytes multiplication inhibition ratio=(1−OD of tested group/OD of control group)*100%
The experimental method was the same as example 4. The lingonberry extract III was prepared by the method in example 3, pine bark extract and grape seed extract were both bought from market, blank was used as control group.

In the case of `OC[C@H]1O[C@@H](Oc2ccc(O)cc2)[C@H](O)[C@@H](O)[C@@H]1O` [arbutin], the inhibition at 1 µg/mL in the experiment with B16 melanocytes [1] (1 mg/L) stood at 7.27 ± 2.29%; in experiment [2] (1 mg/L) it was 7.19%. Also, the inhibition at 5 µg/mL in the experiment on B16 melanocytes [1] (5 mg/L) came to 7.59 ± 0.35%; in experiment [2] (5 mg/L) it was 10.4 ± 2.97%. Moreover, the inhibition at 10 µg/mL is 6.23 ± 0.86% with B16 melanocytes [1] (10 mg/L) and 20.5 ± 1.63% in experiment [2] (10 mg/L). The inhibition at 20 µg/mL came to 10.8 ± 0.33% in the experiment on B16 melanocytes [1] (20 mg/L) and 46.4 ± 2.53% in experiment [2] (20 mg/L). The inhibition at 30 µg/mL turned out to be 12.1 ± 1.3% with B16 melanocytes [1] (30 mg/L) and 53.3 ± 2.27% in experiment [2] (30 mg/L). The cell survival ratio worked out at 110.72 ± 0.41% in the experiment with B16 melanocytes [3] (20 mg/L), 94.30 ± 0.45% with B16 melanocytes [3] (40 mg/L), 91.74 ± 0.39% in the experiment on B16 melanocytes [3] (60 mg/L) and 79.66 ± 1.08% in the experiment on B16 melanocytes [3] (80 mg/L).

The record behind these values is US8501246B2, “Cosmetic composition containing lingonberry extract and its uses” (Beijing Gingko Group Biological Technology, Co., Ltd., priority 2007, dated 2013).
